Where “and” joins values, the source holds several entries; their conditions need not be identical. Identical values can stand only once. Like-named read-outs stand apart in the source and are kept apart here.

For data set [1] the following is noted: rcm bond, 70.0 °C.
The target in the next data set is GSK3β (Homo sapiens, UniProt P49841). Nature of the data set: GSK3β kinase assay (Caliper LabChip3000, fluoresceinated peptide substrate). The format is biochemical. Conditions: first value of cell; 250 pM enzyme, 20 uM ATP, 20 hours room temperature; read-out: GSK3β/α (nM): GSK3β IC50. On the procedure: (§1) The kinase assay was performed in V-bottom 384-well plates. The final assay volume was 30 μl prepared from 15 μl additions of enzyme, substrates (fluoresceinated peptide FL-KRREILSRRP[ps]ERYR-NH2 and ATP) and test compounds in assay buffer (100 mM HEPES pH 7.4, 10 mM MgCl2, 25 mM Beta-Glycerolphosphate, 0.015% Brij35 and 0.25 mM DTT). The reaction was incubated at room temperature for 20 hours and terminated by adding 45 μl of 35 mM EDTA to each sample. The reaction mixture was analyzed on the Caliper LabChip3000 (Caliper, Hopkinton, Mass.) by electrophoretic separation of the unphosphorylated substrate and phosphorylated product. Inhibition data were calculated by comparison of the no enzyme control reactions for 100% inhibition and vehicle-only reactions for 0% inhibition. The final concentration of reagents in the assay were 250 pM GSK3α or GSK3β, 20 uM ATP, 1.5 uM FL-KRREILSRRP[ps]ERYR-NH2, and 1.6% DMSO. Dose response curves were generated to determine the concentration required to inhibit 50% of the kinase activity (IC50). Compounds were dissolved at 10 mM in dimethylsulfoxide (DMSO) and evaluated at eleven concentrations. IC50 values were derived by non-linear regression analysis.
GSK3β, sequence (P49841 whole entry, species assumed): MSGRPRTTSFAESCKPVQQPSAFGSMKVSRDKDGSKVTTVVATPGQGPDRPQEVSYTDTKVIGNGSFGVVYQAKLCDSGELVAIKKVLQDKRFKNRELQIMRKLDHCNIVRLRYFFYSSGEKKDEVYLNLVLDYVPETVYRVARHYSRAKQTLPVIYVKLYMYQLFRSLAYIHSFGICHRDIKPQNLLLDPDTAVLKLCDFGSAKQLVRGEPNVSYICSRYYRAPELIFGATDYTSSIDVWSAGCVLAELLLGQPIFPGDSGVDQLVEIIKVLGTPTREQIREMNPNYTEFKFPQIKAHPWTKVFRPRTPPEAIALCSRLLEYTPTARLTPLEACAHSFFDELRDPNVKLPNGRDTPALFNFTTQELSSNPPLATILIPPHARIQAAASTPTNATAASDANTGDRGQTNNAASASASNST

In the next data set the test system is pTau. As to the kind of experiment: pTau assay. The format is cell-based.
For the next data set, the target named is GSK3α (Homo sapiens, UniProt P49840). As to the kind of experiment: GSK3α kinase assay (Caliper LabChip3000, fluoresceinated peptide substrate). The class given is biochemical. Conditions: second value of cell; 250 pM enzyme, 20 uM ATP, 20 hours room temperature; read-out: GSK3β/α (nM): GSK3α IC50. On the procedure: as §1
GSK3α, sequence (P49840 whole entry, species assumed): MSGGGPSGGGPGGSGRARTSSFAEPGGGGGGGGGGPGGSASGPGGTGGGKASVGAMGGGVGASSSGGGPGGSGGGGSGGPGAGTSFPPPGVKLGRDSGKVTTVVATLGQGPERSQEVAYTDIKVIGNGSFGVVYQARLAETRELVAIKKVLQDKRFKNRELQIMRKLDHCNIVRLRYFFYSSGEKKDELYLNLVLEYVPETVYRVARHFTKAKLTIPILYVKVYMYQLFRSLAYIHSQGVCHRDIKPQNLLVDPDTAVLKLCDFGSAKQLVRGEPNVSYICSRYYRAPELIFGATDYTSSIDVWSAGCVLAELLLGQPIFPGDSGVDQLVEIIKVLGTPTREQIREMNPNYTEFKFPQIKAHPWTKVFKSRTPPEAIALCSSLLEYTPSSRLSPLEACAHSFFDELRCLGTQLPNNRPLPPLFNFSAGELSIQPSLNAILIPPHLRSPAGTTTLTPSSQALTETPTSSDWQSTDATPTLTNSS

With `CC1(C)CC=CCN2CCN(CC2)c2cc(F)ncc2NC(=O)c2ccnc(n2)NC1`, the ring closure, isolated yield in data set [1] (from C=CCN1CCN(c2cc(F)ncc2NC(=O)c2ccnc(NCC(C)(C)CC=C)n2)CC1, 18-membered ring, Zhan 1B, 1.5 h, 2 steps) came out at 34%.
Take `C[C@@H]1Nc2nccc(n2)C(=O)Nc2cnc(F)cc2N2CCN(CC=CCC1O)CC2` (stereo partly drawn): in data set [1] (from C=CCC(O)[C@H](C)Nc1nccc(C(=O)Nc2cnc(F)cc2N2CCN(CC=C)CC2)n1, 18-membered ring, Zhan 1B, ClCH2CH2Cl, 4.78 mM, 1.5 h), the ring closure, isolated yield was 29% and 26%.
In data set [1] (from C=CCC(O)CNc1nccc(C(=O)Nc2cnc(F)cc2N2CCN(CC=C)CC2)n1, 18-membered ring, Zhan 1B (30 mol%), ClCH2CH2Cl, 5.33 mM, 4.0 h), `O=C1Nc2cnc(F)cc2N2CCN(CC=CCC(O)CNc3nccc1n3)CC2` (stereo not drawn) had a ring closure, isolated yield of 50%.
On to `O=C1Nc2cnc(F)cc2N2CCN(CC=CCC3(CC3)CNc3nccc1n3)CC2`, for which the ring closure, isolated yield in data set [1] (from C=CCN1CCN(c2cc(F)ncc2NC(=O)c2ccnc(NCC3(CC=C)CC3)n2)CC1, 18-membered ring, Zhan 1B, ClCH2CH2Cl, 4.73 mM, 2.0 h) was found to be 79%.
Regarding `O=C1Nc2cnc(F)cc2N2CCN(CC=CCCCNc3nccc1n3)CC2`, the ring closure, isolated yield in data set [1] (from C=CCCCNc1nccc(C(=O)Nc2cnc(F)cc2N2CCN(CC=C)CC2)n1, 18-membered ring, Zhan 1B (20 mol%), ClCH2CH2Cl, 5.64 mM, 2.0 h) is 65%.
On to `O=C1Nc2cnc(F)cc2N2CCOC(C=CCCCNc3nccc1n3)C2` (stereo not drawn), for which the ring closure, isolated yield in data set [1] (from C=CCCCNc1nccc(C(=O)Nc2cnc(F)cc2N2CCOC(C=C)C2)n1, 16-membered ring, Zhan 1B (40 mol%), ClCH2CH2Cl, 5.6 mM, 2.0 h) was found to be 46%.
`O=C1Nc2cnccc2OCCC=CCCCNc2nccc1n2`: the ring closure, isolated yield in data set [1] (from C=CCCCNc1nccc(C(=O)Nc2cnccc2OCCC=C)n1, 16-membered ring, Zhan 1B (30 mol%), ClCH2CH2Cl, 5.57 mM, 2.0 h) was 23%.
In data set [1] (from C=CCCOc1ccncc1NC(=O)c1ccnc(NCC=C)n1, 14-membered ring, Zhan 1B (50 mol%), ClCH2CH2Cl, 4.55 mM, 2.0 h), `O=C1Nc2cnccc2OCCC=CCNc2nccc1n2` (mixture of isomers) [Example 5, 5-Oxa-3,11-diaza-1(4,2)-pyrimidina-4(3,4)-pyridinacycloundecaphan-8-en-2-one] returned a ring closure, isolated yield of 34%. For the same molecule, the values for the IC50 on GSK3β, in the data set on pTau and on GSK3α were 13.5 nM, 1500 nM and 12.1 nM, respectively.
In the case of `O=C1Nc2cnc(F)cc2N2CCN(C/C=C/CCCNc3nccc1n3)CC2` (single isomer, unassigned) [Example 23, (E)-2^6-fluoro-3,6-diaza-5(4,2)-pyrimidina-1(1,4)-piperazina-2(4,3)-pyridinacyclododecaphan-10-en-4-one], the IC50 worked out at 0.5 nM at GSK3β, 18 nM in the data set with pTau and 0.6 nM at GSK3α.
The like results for `C[C@@H]1Nc2nccc(n2)C(=O)Nc2cnc(F)cc2N2CCN(C/C=C/CC1O)CC2` (single isomer, unassigned) [Example 36] were, in that order, 10.8 nM, 202 nM and 18.5 nM.
Turning to `O=C1Nc2cnccc2OCCCCCNc2nccc1n2` [Example 6, 5-Oxa-3,11-diaza-1(4,2)-pyrimidina-4(3,4)-pyridinacycloundecaphan-2-one], the IC50 at GSK3β turned out to be 28.6 nM; in the data set on pTau, 910 nM; on GSK3α, 21.2 nM.
In the case of `O=C1Nc2cnccc2OCCCCCCNc2nccc1n2` [Example 9, 5-Oxa-3,12-diaza-1(4,2)-pyrimidina-4(3,4)-pyridinacyclododecaphan-2-one], the IC50 at GSK3β is 5.2 nM; in the data set on pTau, 146 nM; on GSK3α, 6.2 nM.
Turning to `O=C1Nc2cnc(F)cc2N2CCOC(/C=C/CCCNc3nccc1n3)C2` (stereo not drawn) [Example 14, (E)-2^6-Fluoro-3,6-diaza-1(4,2)-morpholina-5(4,2)-pyrimidina-2(4,3)-pyridinacycloundecaphan-10-en-4-one], the values for the IC50 at GSK3β, with pTau and on GSK3α were 12.5 nM, 627 nM and 20.2 nM, respectively.
For `O=C1Nc2cnc(F)cc2N2CCOC(CCCCCNc3nccc1n3)C2` (stereo not drawn) [Example 15, 2^6-Fluoro-3,6-diaza-1(4,2)-morphohna-5(4,2)-pyrimidina-2(4,3)-pyridinacycloundecaphan-4-one], the IC50 at GSK3β was determined as 22.3 nM; with pTau it was 1890 nM; at GSK3α, 34 nM.
As for `O=C1Nc2cnccc2OCC/C=C/CCCNc2nccc1n2` [Example 17, (E)-5-Oxa-3,13-diaza-1(4,2)-pyrimidina-4(3,4)-pyridinacyclotridecaphan-8-en-2-one], the values for the IC50 on GSK3β, with pTau and on GSK3α were 1.3 nM, 92 nM and 3.3 nM, respectively.
For the molecule `O=C1Nc2cnccc2OCCCCCCCNc2nccc1n2` [Example 18, 5-Oxa-3,13-diaza-1(4,2)-pyrimidina-4(3,4)-pyridinacyclotridecaphan-2-one], the IC50 stood at 3.1 nM on GSK3β, 262 nM in the data set with pTau and 6.7 nM at GSK3α.
For the molecule `O=C1Nc2cnc(F)cc2N2CCN(CCCCCCNc3nccc1n3)CC2` [Example 24, 2^6-Fluoro-3,6-diaza-5(4,2)-pyrimidina-1(1,4)-piperazina-2(4,3)-pyridinacyclododecaphan-4-one], the IC50 at GSK3β came to 2 nM; in the data set with pTau it was 124 nM; at GSK3α, 3.6 nM.
For `O=C1Nc2cnc(F)cc2N2CCN(C/C=C/CC(O)CNc3nccc1n3)CC2` (stereo not drawn) [Example 26, (E)-2^6-fluoro-8-hydroxy-3,6-diaza-5(4,2)-pyrimidina-1(1,4)-piperazina-2(4,3)-pyridinacyclododecaphan-10-en-4-one], the results for the IC50 at GSK3β, with pTau and on GSK3α were 3.3 nM, 164 nM and 4.3 nM, respectively.
As to `O=C1Nc2cnc(F)cc2N2CCN(C/C=C\CCC(O)CNc3nccc1n3)CC2` (stereo not drawn) [Example 29, (Z)-2^6-fluoro-8-hydroxy-3,6-diaza-5(4,2)-pyrimidina-1(1,4)-piperazina-2(4,3)-pyridinacyclotridecaphan-11-en-4-one], the IC50 at GSK3β worked out at 29 nM; with pTau it was 2660 nM; on GSK3α it was 30.4 nM.
In the case of `O=C1Nc2cnc(F)cc2N2CCN(C/C=C/CC(F)CNc3nccc1n3)CC2` (stereo not drawn) [Example 30, (E)-2^6,8-Difluoro-3,6-diaza-5(4,2)-pyrimidina-1(1,4)-piperazina-2(4,3)-pyridinacyclododecaphan-10-en-4-one], the values for the IC50 in the data set with pTau and on GSK3α were 178 nM and 15.5 nM, respectively.
As for `CC1(C)C/C=C/CN2CCN(CC2)c2cc(F)ncc2NC(=O)c2ccnc(n2)NC1` [Example 32, (E)-2^6-Fluoro-8,8-dimethyl-3,6-diaza-5(4,2)-pyrimidina-1(1,4)-piperazina-2(4,3)-pyridinacyclododecaphan-10-en-4-one], the IC50 in the data set on pTau is 80 nM; on GSK3α, 2 nM.
In the case of `C[C@@H]1Nc2nccc(n2)C(=O)Nc2cnc(F)cc2N2CCN(C/C=C/C[C@@H]1O)CC2` [Example 37, (7S,8S,E)-2^6-fluoro-8-hydroxy-7-methyl-3,6-diaza-5(4,2)-pyrimidina-1(1,4)-piperazina-2(4,3)-pyridinacyclododecaphan-10-en-4-one], the IC50 on GSK3β is 7.3 nM; with pTau it was 404 nM; on GSK3α it was 17 nM.
Take `CC1(O)C/C=C/CN2CCN(CC2)c2cc(F)ncc2NC(=O)c2ccnc(n2)NC1` (stereo not drawn) [Example 39, (E)-2^6-Fluoro-8-hydroxy-8-methyl-3,6-diaza-5(4,2)-pyrimidina-1(1,4)-piperazina-2(4,3)-pyridinacyclododecaphan-10-en-4-one]: the IC50 worked out at 4.1 nM on GSK3β, 372 nM in the data set with pTau and 8 nM at GSK3α.
Take `CC1(O)CCCCCOc2ccncc2NC(=O)c2ccnc(n2)NC1` (stereo not drawn) [Example 42, 11-Hydroxy-11-methyl-5-oxa-3,13-diaza-1(4,2)-pyrimidina-4(3,4)-pyridinacyclotridecaphan-2-one]: the results for the IC50 at GSK3β, in the data set on pTau and on GSK3α were 1.4 nM, 96 nM and 3.2 nM, respectively.
On the same counts, the results for `O=C1Nc2cnc(F)cc2N2CCN(C/C=C\CC3(CC3)CNc3nccc1n3)CC2` [Example 44, (Z)-6′-fluorospiro[cyclopropane-1,8′-3,6-diaza-5(4,2)-pyrimidina-1(1,4)-piperazina-2(4,3)-pyridinacyclododecaphanen]-10′-en-4′-one] are 12.5 nM, 1640 nM and 21.1 nM.

For the origin of these results see patent US11053258B2, “Pyrimidine carboxamides as GSK-3 inhibitors” (BRISTOL-MYERS SQUIBB COMPANY, priority 2016, dated 2021).
